In US4816490A, “Novel therapeutic use of a derivative of indane dione and the pharmaceutical compositions intended for this use” (priority 1987, dated 1989):

Assays:
[1] = system: hyperlipidaemia induced by TRITON WR 1339; assay: Hyperlipidaemia induced by TRITON WR 1339 in the Wistar rat; assay type: in vivo; settings: for Dose dependence of hypolipaemiant activity: 250 and 500 mg/kg
Procedure: Feeding by standard Regimen UAR A04
Drinking water ad libitum
6 animals per dose in a cage in MAKROLON of 60×40 cm filled with shavings of wood.
10 mn after: administration of the test compound
6 hours after: 1st sampling of the blood at the retro-orbital sinus
Total cholesterol by the colorimetric method of RICHMOND
Cholesterol in HDL by the colorimetric method of RICHMOND after precipitation by CONCANAVALIN A
Cholesterol in LDL by the colorimetric method of RICHMOND after precipitation by CONCANAVALIN A
Total lipids by the Zollner's sulphophosphovanillic method
Triglycerids by the BUCOLO's enzymatic method.

[2] = system: female rats of Wistar strain; assay: Tolerance, mortality and body weight in the rat atheroma study; settings: 100 mg/kg
Text: (§1) Female rats of Wistar strain, free of specific pathogenic germs (EOPS) stemming from the breeding EVIC-CEBA
(§2) Diet of the animals: the animals were given the atheromatogenous regimen then while maintaining the same regimen, they were given for 4 days 250,000 IU/kg of vitamin D2 dissolved in olive oil (Sterogyl 15H). The compounds to be tested were given thereafter for 4 weeks immediately after the termination of the atheromatogenous regimen.
The behavior and the changes in weight of the animals were surveyed every day as well as by weekly weighing.

[3] = system: male and female mice of Swiss strain; assay: Acute toxicity after single oral administration; assay type: in vivo; settings: for Deaths / toxic symptoms: single dose 10 g/kg
Text: Male and female mice of Swiss strain weighing from 22 to 25 g of body weight were free of pathogen specific organisms (EOPS), stemming from breeding CERJ (53860 LE GENEST (France) and acclimated for at least 8 days in the animalry of the firm.
Except where stipulated to the contrary, in the tables giving the results, 10 animals of the same sex for each dose were housed in cages of MAKROLON (Safi) of 40 cm by 25 cm filled with shaving of wood. Standard feeding for rats and mice, tablets UAR and tap water ad libitum.
The compounds were administered without previous fasting either orally (gastric tubing using a metallic oesophageous sonde) at a rate of 0.5 ml or 1 ml per 20 g of body weight of an aqueous suspension of the test compound in a 3% solution of arabic gum, or intraperitoneally at a rate of 0.5 ml or 1 ml per 20 g of body weight of the test compound suspended in an isotonic saline solution containing 3% of arabic gum.
For 6 days after the single administration and then every day for 15 days.
When necessary, the mean lethal doses (LD 50) were calculated by the method of Behrens and Karber (BK) and Miller and Tainter (MT). The latter allowing to supply with, for the threshold of probability P=0.05 a limit of confidence for the LD 50. Further calculated were the LDo i.e. DMT=maximal doses always tolerated and the LD100 i.e. DMM=minimal doses always lethal.
The compound was administered in a single dose to batches of 10 male or female mice weighing […] at a rate of 1 ml per 20 g of body weight.

[4] = Anti-lipaemiant activity (general statement); assay type: in vivo; settings: read-out: Dose from which a clear anti-lipaemiant activity is shown
[5] = system: atheroma / hyperlipidaemia in Wistar rats on atheromatogenous regimen; assay: Overall hypolipaemiant and anti-atheromatous classification (summarized scores); assay type: in vivo, rat; settings: 100 mg/kg
Text: The method utilized for the test was that, slightly altered of Aubert D. Feraud J. C., Lacaze B., Pepino., Ponak E. et Podesta M. as described in Atherosclerosis, Vol. 20 (1974), p. 263-280 (Experimental Atherogenesis in the Wistar Rat).
as §1
Diet: standard tablets UAE AO 3 enriched in cholesterol (0.5%) and in cholic acid (0.5).
as §2

Compound: COc1ccc(C(=O)CC2(O)C(=O)c3ccccc3C2=O)cc1OC [Compound of the invention, 2-[(3,4-dimethoxy-benzoyl)-methyl]-2-hydroxy-1,3-dioxo Indane]
- Dose dependence of hypolipaemiant activity ([1]; 6 hours after TRITON WR 1339): directly proportional to the doses
- Dose dependence of hypolipaemiant activity ([1]; 24 hours after TRITON WR 1339): inversely proportional to the dose
- Total Score vs 250 mg/kg Procetofene ([1]; 6 hours after, 125 mg/kg oral): 2.75
- Total cholesterol score vs 250 mg/kg Procetofene ([1]; 6 hours after, 125 mg/kg oral): 2.44
- Triglycerids score vs 250 mg/kg Procetofene ([1]; 6 hours after, 125 mg/kg oral): 0.31
- Cholesterol HDL/LDL score vs 250 mg/kg Procetofene ([1]; 6 hours after, 250 mg/kg oral): 0.87
- Total Score vs 250 mg/kg Procetofene ([1]; 6 hours after, 250 mg/kg oral): 3.74
- Total cholesterol score vs 250 mg/kg Procetofene ([1]; 6 hours after, 250 mg/kg oral): 1.15
- Total lipids score vs 250 mg/kg Procetofene ([1]; 6 hours after, 250 mg/kg oral): 0.92
- Triglycerids score vs 250 mg/kg Procetofene ([1]; 6 hours after, 250 mg/kg oral): 0.80
- Cholesterol HDL/LDL score vs 250 mg/kg Procetofene ([1]; 6 hours after, 500 mg/kg oral): 2.00
- Total Score vs 250 mg/kg Procetofene ([1]; 6 hours after, 500 mg/kg oral): 4.95
- Total cholesterol score vs 250 mg/kg Procetofene ([1]; 6 hours after, 500 mg/kg oral): 0.35
- Total lipids score vs 250 mg/kg Procetofene ([1]; 6 hours after, 500 mg/kg oral): 1.00
- Triglycerids score vs 250 mg/kg Procetofene ([1]; 6 hours after, 500 mg/kg oral): 1.60
- Total Score vs 250 mg/kg Procetofene ([1]; 6 hours after, 750 mg/kg oral): 1.72
- Total cholesterol score vs 250 mg/kg Procetofene ([1]; 6 hours after, 750 mg/kg oral): 0.78
- Total lipids score vs 250 mg/kg Procetofene ([1]; 6 hours after, 750 mg/kg oral): 0.14
- Triglycerids score vs 250 mg/kg Procetofene ([1]; 6 hours after, 750 mg/kg oral): 0.80
- Cholesterol HDL/LDL score vs 250 mg/kg Procetofene ([1]; 24 hours after, 125 mg/kg oral): 1.40
- Total Score vs 250 mg/kg Procetofene ([1]; 24 hours after, 125 mg/kg oral): 1.94
- Total cholesterol score vs 250 mg/kg Procetofene ([1]; 24 hours after, 125 mg/kg oral): 0.28
- Triglycerids score vs 250 mg/kg Procetofene ([1]; 24 hours after, 125 mg/kg oral): 0.26
- Cholesterol HDL/LDL score vs 250 mg/kg Procetofene ([1]; 24 hours after, 250 mg/kg oral): 1.10
- Total Score vs 250 mg/kg Procetofene ([1]; 24 hours after, 250 mg/kg oral): 4.64
- Total cholesterol score vs 250 mg/kg Procetofene ([1]; 24 hours after, 250 mg/kg oral): 1.13
- Total lipids score vs 250 mg/kg Procetofene ([1]; 24 hours after, 250 mg/kg oral): 1.56
- Triglycerids score vs 250 mg/kg Procetofene ([1]; 24 hours after, 250 mg/kg oral): 0.85
- Cholesterol HDL/LDL score vs 250 mg/kg Procetofene ([1]; 24 hours after, 500 mg/kg oral): 0.80
- Total Score vs 250 mg/kg Procetofene ([1]; 24 hours after, 500 mg/kg oral): 3.66
- Total cholesterol score vs 250 mg/kg Procetofene ([1]; 24 hours after, 500 mg/kg oral): 0.75
- Total lipids score vs 250 mg/kg Procetofene ([1]; 24 hours after, 500 mg/kg oral): 1.62
- Triglycerids score vs 250 mg/kg Procetofene ([1]; 24 hours after, 500 mg/kg oral): 0.49
- Cholesterol HDL/LDL score vs 250 mg/kg Procetofene ([1]; 24 hours after, 750 mg/kg oral): 0.40
- Total Score vs 250 mg/kg Procetofene ([1]; 24 hours after, 750 mg/kg oral): 1.73
- Total cholesterol score vs 250 mg/kg Procetofene ([1]; 24 hours after, 750 mg/kg oral): 0.61
- Triglycerids score vs 250 mg/kg Procetofene ([1]; 24 hours after, 750 mg/kg oral): 0.72
- minimal effective dose ([1]; Rattus norvegicus, TRITON WR 1339, rats, oral, read-out: Oral dose from which hyperlipaemia was antagonized or decreased): ≥ 125 mg/kg
- Antihyperlipaemiant activity, compound vs Procetofene ([1]; same doses (250 and 500 mg/kg)): antihyperlipaemiant activity about equal
- Mortality compared with batch No. 2 (2/15) ([2]; 4 weeks, atheromatogenous regimen): did not increase it
- Tolerance compared with Clofibrate ([2]; rat, in vivo): better tolerated
- Toxicity ([3]; general statement): very low toxicity
- LD100 ([3]; oral, male or female mice): > 10 g/kg
- LDo ([3]; oral, male or female mice): 10 g/kg
- Deaths / toxic symptoms ([3]; oral, male or female mice): no toxicity even at a dose of 10 g/kg
- Deaths / toxic symptoms ([3]; oral, male or female mice, listed as test compound): no deaths nor toxic symptoms appeared
- Toxicity in comparison with Clofibrate ([3]; single administration, orally or parenterally): less toxic than Clofibrate
- minimal effective dose [4]: ≥ 100 mg/kg
- Classification of the anti-atheromatous action [5]: Compound of the invention>Fenofibrate>Clofibrate
- Hypolipaemiant and anti-atheromatous activity [5]: marked hypolipaemiant and anti-atheromatous activity, very close to Clofibrate (100 mg/kg) and far better than those of Fenclofibrate (100 mg/kg)
